The NIST ThermoML archive (doi:10.1016/j.fluid.2014.04.002)
± gives the expanded uncertainty stated by the source.

Assay: refractive index (Na D-line) (dimensionless); xn = mol fraction of the nth substance listed
Conditions: 101 kPa, Liquid, Standard Abbe refractometry

COCCOCCOCCOCCOC [2,5,8,11,14-pentaoxapentadecane] + CCOC(=O)C(C)O
refractive index
Conditions	x2 = 0	x2 = 0.0999	x2 = 0.1999	x2 = 0.2999	x2 = 0.3998	x2 = 0.4999	x2 = 0.6001	x2 = 0.6998	x2 = 0.8001	x2 = 0.9
288.15 K	1.43553 ± 0.00037	1.43413 ± 0.00038	1.43253 ± 0.00039	1.43141 ± 0.00041	1.42997 ± 0.00042	1.42831 ± 0.00043	1.42648 ± 0.00045	1.42438 ± 0.00046	1.42214 ± 0.00048	1.41886 ± 0.00049
293.15 K	1.43338 ± 0.00037	1.43195 ± 0.00038	1.4304 ± 0.00039	1.42925 ± 0.00041	1.42782 ± 0.00042	1.42614 ± 0.00043	1.42431 ± 0.00045	1.42219 ± 0.00046	1.4199 ± 0.00048	1.41662 ± 0.00049
298.15 K	1.43123 ± 0.00037	1.42983 ± 0.00038	1.42826 ± 0.00039	1.42712 ± 0.00041	1.42566 ± 0.00042	1.42398 ± 0.00043	1.42212 ± 0.00045	1.41995 ± 0.00046	1.41764 ± 0.00048	1.41436 ± 0.00049
303.15 K	1.42906 ± 0.00037	1.42761 ± 0.00038	1.42612 ± 0.00039	1.42496 ± 0.00041	1.42351 ± 0.00042	1.4218 ± 0.00043	1.41993 ± 0.00045	1.41778 ± 0.00046	1.41537 ± 0.00048	1.41208 ± 0.00049
308.15 K	1.42697 ± 0.00037	1.42558 ± 0.00038	1.42399 ± 0.00039	1.4228 ± 0.00041	1.42135 ± 0.00042	1.41964 ± 0.00043	1.41774 ± 0.00045	1.41556 ± 0.00046	1.41312 ± 0.00048	1.4098 ± 0.00049
313.15 K	1.42447 ± 0.00037	1.42319 ± 0.00038	1.42182 ± 0.00039	1.42059 ± 0.00041	1.41916 ± 0.00042	1.41744 ± 0.00043	1.41552 ± 0.00045	1.41332 ± 0.00046	1.41084 ± 0.00048	1.40749 ± 0.00049
318.15 K	1.42206 ± 0.00037	1.42095 ± 0.00038	1.41972 ± 0.00039	1.41848 ± 0.00041	1.41703 ± 0.00042	1.41528 ± 0.00043	1.41335 ± 0.00045	1.41108 ± 0.00046	1.40853 ± 0.00048	1.40517 ± 0.00049
323.15 K	1.41985 ± 0.00037	1.4188 ± 0.00038	1.41762 ± 0.00039	1.41635 ± 0.00041	1.41488 ± 0.00042	1.41315 ± 0.00043	1.41119 ± 0.00045	1.40889 ± 0.00046	1.40622 ± 0.00048	1.40288 ± 0.00049

CCOC(=O)C(C)O (stereo not drawn) [DL-ethyl lactate] + C1CCOC1
refractive index
Conditions	x1 = 0.1002	x1 = 0.2001	x1 = 0.3001	x1 = 0.4001	x1 = 0.4999	x1 = 0.5999	x1 = 0.6999	x1 = 0.7999	x1 = 0.8997	x1 = 1
288.15 K	1.41059 ± 0.00038	1.41119 ± 0.00039	1.4118 ± 0.00041	1.41241 ± 0.00042	1.41298 ± 0.00043	1.41349 ± 0.00045	1.41393 ± 0.00046	1.41431 ± 0.00048	1.41475 ± 0.00049	1.41537 ± 0.00051
293.15 K	1.40801 ± 0.00038	1.40867 ± 0.00039	1.40932 ± 0.00041	1.40998 ± 0.00042	1.41058 ± 0.00043	1.41112 ± 0.00045	1.41157 ± 0.00046	1.41197 ± 0.00048	1.41242 ± 0.00049	1.41307 ± 0.00051
298.15 K	1.40539 ± 0.00038	1.40614 ± 0.00039	1.40687 ± 0.00041	1.40756 ± 0.00042	1.40816 ± 0.00043	1.40871 ± 0.00045	1.40922 ± 0.00046	1.40965 ± 0.00048	1.41017 ± 0.00049	1.41076 ± 0.00051
303.15 K	1.40277 ± 0.00038	1.40359 ± 0.00039	1.40438 ± 0.00041	1.4051 ± 0.00042	1.40571 ± 0.00043	1.40628 ± 0.00045	1.40684 ± 0.00046	1.4073 ± 0.00048	1.40787 ± 0.00049	1.40843 ± 0.00051
308.15 K	1.40015 ± 0.00038	1.40102 ± 0.00039	1.40187 ± 0.00041	1.40264 ± 0.00042	1.40326 ± 0.00043	1.40392 ± 0.00045	1.40445 ± 0.00046	1.40493 ± 0.00048	1.40546 ± 0.00049	1.4061 ± 0.00051
313.15 K	1.3975 ± 0.00038	1.39842 ± 0.00039	1.39936 ± 0.00041	1.40014 ± 0.00042	1.4008 ± 0.00043	1.40149 ± 0.00045	1.40205 ± 0.00046	1.40255 ± 0.00048	1.4031 ± 0.00049	1.40374 ± 0.00051
318.15 K	1.39481 ± 0.00038	1.39578 ± 0.00039	1.39672 ± 0.00041	1.39755 ± 0.00042	1.39831 ± 0.00043	1.39899 ± 0.00045	1.3996 ± 0.00046	1.40015 ± 0.00048	1.4007 ± 0.00049	1.40136 ± 0.00051
323.15 K	1.39211 ± 0.00038	1.39315 ± 0.00039	1.39416 ± 0.00041	1.39503 ± 0.00042	1.39583 ± 0.00043	1.39655 ± 0.00045	1.3972 ± 0.00046	1.39778 ± 0.00048	1.39834 ± 0.00049	1.39898 ± 0.00051

CCOC(=O)C(C)O (stereo not drawn) [DL-ethyl lactate] + CC(O)CO
refractive index
Conditions	x1 = 0.1	x1 = 0.2	x1 = 0.3	x1 = 0.3999	x1 = 0.4998	x1 = 0.599	x1 = 0.6999	x1 = 0.7994	x1 = 0.8997	x1 = 1
288.15 K	1.43169 ± 0.00038	1.42919 ± 0.00039	1.42688 ± 0.00041	1.42476 ± 0.00042	1.42287 ± 0.00043	1.42116 ± 0.00045	1.41959 ± 0.00046	1.41814 ± 0.00048	1.41676 ± 0.00049	1.41537 ± 0.00051
293.15 K	1.42994 ± 0.00038	1.42736 ± 0.00039	1.42499 ± 0.00041	1.4228 ± 0.00042	1.42086 ± 0.00043	1.4191 ± 0.00045	1.41747 ± 0.00046	1.41597 ± 0.00048	1.41452 ± 0.00049	1.41307 ± 0.00051
298.15 K	1.42819 ± 0.00038	1.42554 ± 0.00039	1.42309 ± 0.00041	1.42085 ± 0.00042	1.41883 ± 0.00043	1.41701 ± 0.00045	1.41532 ± 0.00046	1.41377 ± 0.00048	1.41227 ± 0.00049	1.41076 ± 0.00051
303.15 K	1.42642 ± 0.00038	1.42369 ± 0.00039	1.42118 ± 0.00041	1.41886 ± 0.00042	1.41679 ± 0.00043	1.41491 ± 0.00045	1.41316 ± 0.00046	1.41155 ± 0.00048	1.40999 ± 0.00049	1.40843 ± 0.00051
308.15 K	1.42461 ± 0.00038	1.42181 ± 0.00039	1.41924 ± 0.00041	1.41688 ± 0.00042	1.41475 ± 0.00043	1.41282 ± 0.00045	1.41102 ± 0.00046	1.40935 ± 0.00048	1.40773 ± 0.00049	1.4061 ± 0.00051
313.15 K	1.42279 ± 0.00038	1.41992 ± 0.00039	1.41729 ± 0.00041	1.41488 ± 0.00042	1.4127 ± 0.00043	1.41071 ± 0.00045	1.40884 ± 0.00046	1.40711 ± 0.00048	1.40542 ± 0.00049	1.40374 ± 0.00051
318.15 K	1.42098 ± 0.00038	1.41801 ± 0.00039	1.41529 ± 0.00041	1.41282 ± 0.00042	1.41055 ± 0.00043	1.4085 ± 0.00045	1.40659 ± 0.00046	1.40481 ± 0.00048	1.40309 ± 0.00049	1.40136 ± 0.00051
323.15 K	1.41918 ± 0.00038	1.41615 ± 0.00039	1.41337 ± 0.00041	1.41082 ± 0.00042	1.40849 ± 0.00043	1.40637 ± 0.00045	1.40437 ± 0.00046	1.40252 ± 0.00048	1.40073 ± 0.00049	1.39898 ± 0.00051

CCOC(=O)C(C)O (stereo not drawn) [DL-ethyl lactate] + OCCCO
refractive index
Conditions	x1 = 0.1001	x1 = 0.2001	x1 = 0.3	x1 = 0.3998	x1 = 0.4996	x1 = 0.5997	x1 = 0.7	x1 = 0.8	x1 = 0.8997	x1 = 1
288.15 K	1.43819 ± 0.00051	1.43549 ± 0.00051	1.43282 ± 0.00051	1.43021 ± 0.00051	1.42764 ± 0.00051	1.4251 ± 0.00051	1.42262 ± 0.00051	1.42017 ± 0.00051	1.41776 ± 0.00051	1.41537 ± 0.00051
293.15 K	1.43668 ± 0.00051	1.43388 ± 0.00051	1.43111 ± 0.00051	1.4284 ± 0.00051	1.42573 ± 0.00051	1.42312 ± 0.00051	1.42055 ± 0.00051	1.41803 ± 0.00051	1.41554 ± 0.00051	1.41307 ± 0.00051
298.15 K	1.43517 ± 0.00051	1.43227 ± 0.00051	1.4294 ± 0.00051	1.42658 ± 0.00051	1.42383 ± 0.00051	1.42114 ± 0.00051	1.41851 ± 0.00051	1.41592 ± 0.00051	1.41336 ± 0.00051	1.41076 ± 0.00051
303.15 K	1.43362 ± 0.00051	1.43062 ± 0.00051	1.42766 ± 0.00051	1.42476 ± 0.00051	1.42192 ± 0.00051	1.41914 ± 0.00051	1.4164 ± 0.00051	1.41371 ± 0.00051	1.41107 ± 0.00051	1.40843 ± 0.00051
308.15 K	1.43214 ± 0.00051	1.42902 ± 0.00051	1.42592 ± 0.00051	1.42292 ± 0.00051	1.41996 ± 0.00051	1.41713 ± 0.00051	1.41427 ± 0.00051	1.41152 ± 0.00051	1.40882 ± 0.00051	1.4061 ± 0.00051
313.15 K	1.43065 ± 0.00051	1.42743 ± 0.00051	1.42421 ± 0.00051	1.42111 ± 0.00051	1.41805 ± 0.00051	1.41506 ± 0.00051	1.41215 ± 0.00051	1.40932 ± 0.00051	1.40654 ± 0.00051	1.40374 ± 0.00051
318.15 K	1.42914 ± 0.00051	1.4258 ± 0.00051	1.42249 ± 0.00051	1.41923 ± 0.00051	1.41608 ± 0.00051	1.41301 ± 0.00051	1.41004 ± 0.00051	1.40715 ± 0.00051	1.40428 ± 0.00051	1.40136 ± 0.00051
323.15 K	1.42761 ± 0.00051	1.42417 ± 0.00051	1.42075 ± 0.00051	1.41741 ± 0.00051	1.41415 ± 0.00051	1.41097 ± 0.00051	1.40792 ± 0.00051	1.40493 ± 0.00051	1.40198 ± 0.00051	1.39898 ± 0.00051
